Read-outs that look alike come from different tables or passages of the source.
Key:
[1] = cited from earlier work
[2] = tested on: lipopolysaccharide-activated macrophages; conditions: cited from earlier work
macrophage foam cells = conditions: cited from earlier work
[3] = tested on: rats subjected to myocardial ischemia and reperfusion; conditions: EGCG 10 mg/kg intravenously then 10 mg/kg/h infusion; cited from earlier work
[4] = tested on: mice with experimental colitis; conditions: cited from earlier work
cancer patients = assay: Pterostilbene (nanostilbene) in cancer patients, NK cell activity and interferon gamma; format: in vivo, human; conditions: administered in the form of nanostilbene
Source text: Additionally, pterostilbene has shown to inhibit inflammatory cytokines associated with ARDS.

[5] = tested on: human umbilical vein VECs (HUVECs); conditions: cited from earlier work
apoE(−/−) mice = conditions: PT injection; cited from earlier work
[6] = tested on: BALB/c mice exposed to random stress; assay: Endogenous neurogenesis in stressed mice, BRDU incorporation assessed by histology; format: in vivo; conditions: stressed BALB/c mice treated daily; FIG. 1
Experimental: FIG. 1 is a bar graph showing the results of stressed mice that were treated with Fluoxetine or QuadraMune™ daily. Assessment of endogenous neurogenesis was performed by administering BRDU and assessment of incorporation by histology.
BALB/c mice where exposed to random stress 4 times a day by spinning by the tail for 15 seconds. Controls where not stressed. Stressed mice where treated with Prozac or QuadraMune™ daily. Assessment of endogenous neurogenesis was performed by administering BRDU and assessment of incorporation by histology.

[7] = tested on: mice challenged with endotoxin (LPS 0111:B4) or live Escherichia coli; conditions: cited from earlier work; for concentrations of IL-la: controls 1187.0±278.64
[8] = tested on: lipopolysaccharide-induced inflammatory reactions; conditions: cited from earlier work
[9] = tested on: primary peritoneal macrophages; conditions: cited from earlier work
[10] = tested on: LPS-challenged macrophages; conditions: pre-incubated 6 h with SFN 0 to 50 μM, then LPS 24 h; cited from earlier work
[11] = tested on: BALB/c mice with LPS-induced ARDS; conditions: cited from earlier work
[12] = sulforaphane 50 mg/kg, LPS 5 mg/kg

Q: Which bioavailability ([1]; animal studies) does the source give for Oc1ccc(C=Cc2cc(O)cc(O)c2)cc1 [resveratrol, reference compound] here?
A: 20%

Q: Which “iNOS activity in soluble extracts” value ([2]; EGCG 5 and 10 microM for 6-24 hr, vs macrophages without EGCG) does the source give for O=C(O[C@@H]1Cc2c(O)cc(O)cc2O[C@@H]1c1cc(O)c(O)c(O)c1)c1cc(O)c(O)c(O)c1 [EGCG, Epigallocatechin Gallate] here?
A: significantly lower

Q: And the NO production ([2]; cells cotreated with EGCG and LPS)?
A: Inhibition

Q: What about the “activation of nuclear factor-kappaB” value ([2]; electrophoretic mobility shift assay) of the same molecule?
A: blocked

Q: What about the “TNF-α-induced nuclear factor-κB (NF-κB) activity” value (macrophage foam cells) of the same molecule?
A: inhibition

Q: What about the “TNF-α-induced downregulation of ABCA1 and decrease in cholesterol efflux to apoA 1” value (macrophage foam cells; pretreatment with EGCG) of the same molecule?
A: attenuated

Q: What about the “myocardial damage and myeloperoxidase activity” value [3] of the same molecule?
A: reduced

Q: And the “plasma IL-6 and creatine phosphokinase levels” value [3]?
A: decreased

Q: And the “disease activity index (DAI) and spleen index (SI)” value ([4]; 50 and 100 mg/kg/day EGCG groups vs MD group)?
A: decreased

Q: What about the “HIF-1α and STATS protein expression in the colon” value ([4]; mouse, in vivo) of the same molecule?
A: decreasing

Q: And the “plasma levels of IL-10 and TGF-β1” value ([4]; mouse, in vivo)?
A: increasing

Q: What about the “release of IL-6 and IL-17” value ([4]; mouse, in vivo) of the same molecule?
A: reduce

Q: Which results are given for “trans-3,5-dimethoxy-4-hydroxystilbene [pterostilbene]”?
A: NK cell activity (cancer patients): increased; interferon gamma production (cancer patients): increased; oxLDL-induced cell shrinkage, chromatin condensation, nuclear fragmentation and cell apoptosis ([5]; HUVECs, oxLDL 200 μg/ml): protected against such injuries; expression of lectin-like oxLDL receptor-1 (LOX-1) ([5]; in vitro and in vivo): inhibited; number of TUNEL-positive cells in the endothelium of atherosclerotic plaque (apoE(−/−) mice): strongly decreased; bioavailability ([1]; rat, in vivo): 80%

Q: Which “endogenous neurogenesis (BRDU incorporation by histology)” value [6] does the source give for CNCCC(Oc1ccc(C(F)(F)F)cc1)c1ccccc1 (stereo not drawn) [Prozac, Fluoxetine] here?
A: Augmented neurogenesis

Q: Which “concentrations of IL-la” value ([7]; 0.75 mg/kg thymoquinone dose) does the source give for CC1=CC(=O)C(C(C)C)=CC1=O [thymoquinone] here?
A: 310.8 ± 70.93 pg/mL

Q: What about the IL-10 levels ([7]; 0.75 mg/kg thymoquinone, controls 5505.2±333.96) of the same molecule?
A: 2885.0 ± 553.98 pg/mL

Q: What about the “concentrations of IL-la” value ([7]; 1 mg/kg group) of the same molecule?
A: 428.3 ± 71.32 pg/mL

Q: And the “levels of TNF-α and IL-2” value ([7]; P values=0.1817 and 0.0851)?
A: relatively lower levels

Q: What about the “renal and hepatic biomarker profiles” value ([7]; mouse, in vivo) of the same molecule?
A: improved

Q: What about the reduced mortality ([7]; thymoquinone before endotoxin or E. coli sepsis in mice) of the same molecule?
A: 80-90%

Q: And the “concentration of nitric oxide” value [8]?
A: reduced significantly

Q: Which HO-1 expression ([9]; LPS-stimulated Nrf2 (+/+) primary peritoneal macrophages) does the source give for C[S+]([O-])CCCCN=C=S (stereo not drawn) [sulforaphane, 1-isothiocyanato-4-(methylsulfinyl)-butane] here?
A: significantly augmented

Q: What about the anti-inflammatory effect ([9]; Nrf2 (−/−) primary peritoneal macrophages) of the same molecule?
A: attenuated

Q: What about the “LPS-stimulated mRNA expression, protein expression and production of TNF-alpha, IL-1beta, COX-2 and iNOS” value ([9]; pretreatment, Nrf2 (+/+) primary peritoneal macrophages) of the same molecule?
A: potently inhibited

Q: What about the “expression of NO and cytokines” value [10] of the same molecule?
A: able to prevent

Q: And the “serum levels of interleukin-6 (IL-6) and tumor necrosis factor-α (TNF-α)” value ([11]; ELISA, sulforaphane 50 mg/kg)?
A: significantly decreased

Q: And the “Nrf2/antioxidant response element (ARE) pathway” value ([11]; pre-treatment)?
A: activated

Q: And the “lactate dehydrogenase (LDH) activity” value [11, 12]?
A: significantly decreased

Q: What about the “wet-to-dry ratio of the lungs” value [11, 12] of the same molecule?
A: significantly decreased

Q: What about the “nuclear factor-κB protein expression” value ([11]; sulforaphane 50 mg/kg) of the same molecule?
A: significantly decreased

Q: What about the “prostaglandin E2 (PGE2) production, COX-2 and MMP-9 protein expression, iNOS activity” value ([11]; sulforaphane 50 mg/kg) of the same molecule?
A: significantly inhibited
